Measured values from patent US10597388B2, “Pyridazinone herbicides” (FMC CORPORATION, priority 2014, dated 2020).

What was measured:
Assay in all cases: Test D controlled growth environment herbicide test, pre- and postemergence
Format in all cases: in vivo
[1] = tested on: oilseed rape (Brassica napus)
In short: (§1)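 Species sown in silt loam and sprayed preemergence, or grown in peat-based medium to 2–18 cm (1- to 4-leaf stage) and sprayed postemergence, with compounds in non-phytotoxic solvent plus surfactant. Visual injury scored versus controls after 14–21 d in a controlled environment, 0 (no effect) to 100 (complete control).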

[2] = tested on: windgrass (Apera spica-venti)
In short: as §1

[3] = tested on: canarygrass (Phalaris minor)
In short: as §1

[4] = tested on: galium (catchweed bedstraw, Galium aparine)
In short: as §1

[5] = tested on: field violet (Viola arvensis)
In short: as §1

kochia (Kochia scoparia) = tested on: kochia (Kochia scoparia)
In short: as §1

[6] = tested on: Russian thistle (Salsola kali)
In short: as §1

[7] = tested on: speedwell (bird's-eye speedwell, Veronica persica)
In short: as §1

[8] = tested on: mustard, wild (wild mustard, Sinapis arvensis)
In short: as §1

[9] = tested on: radish, wild (wild radish, Raphanus raphanistrum)
In short: as §1

[10] = tested on: buckwheat, wild (wild buckwheat, Polygonum convolvulus)
In short: as §1

[11] = tested on: pigweed (Amaranthus retroflexus)
In short: as §1

[12] = tested on: bluegrass (annual bluegrass, Poa annua)
In short: as §1

[13] = Postemergence, 31 g ai/ha, scale 0 to 100 (0 no effect, 100 complete control)
[14] = Postemergence, 125 g ai/ha, visual rating on scale 0 (no effect) to 100 (complete control), 14 to 21 d
[15] = Postemergence, 250 g ai/ha, scale 0 to 100 (0 no effect, 100 complete control)
[16] = Preemergence, 125 g ai/ha, scale 0 to 100 (0 no effect, 100 complete control)
[17] = Preemergence, 250 g ai/ha, scale 0 to 100 (0 no effect, 100 complete control)
[18] = postemergence, 62 g ai/ha, scale 0 to 100, 0 no effect, 100 complete control
[19] = Preemergence, 62 g ai/ha, scale 0 to 100 (0 no effect, 100 complete control)

CC(=O)Oc1c(C)nn(C)c(=O)c1-c1c(C)cc(C)c2ccccc12 [Compound 153]
98: Plant response rating, Oilseed Rape [1, 15] | Plant response rating, Galium [4, 17] | Mustard, Wild plant response rating [8, 13] | Plant response rating, Mustard, Wild [8, 18] | Plant response rating (scale of 0 to 100), Radish, Wild ([9]; Preemergence, 62 g ai/ha) | Plant response rating, Radish, Wild [9, 16]
100: Plant response rating, Oilseed Rape [1, 17] | Plant response rating, Canarygrass [3, 17] | Galium plant response rating [4, 13] | Plant response rating, Galium [4, 14] | Plant response rating, Galium [4, 15] | Plant response rating, Galium [4, 18] | Plant response rating, Field Violet [5, 15] | Plant response rating (scale of 0 to 100), Field Violet ([5]; Preemergence, 31 g ai/ha) | Plant response rating (scale of 0 to 100), Field Violet ([5]; Preemergence, 62 g ai/ha) | Plant response rating, Field Violet [5, 16] | Plant response rating, Field Violet [5, 17] | Plant response rating, Russian Thistle [6, 17] | Plant response rating, Speedwell [7, 15] | Plant response rating (scale of 0 to 100), Speedwell ([7]; Preemergence, 31 g ai/ha) | Plant response rating (scale of 0 to 100), Speedwell ([7]; Preemergence, 62 g ai/ha) | Plant response rating, Speedwell [7, 16] | Plant response rating, Speedwell [7, 17] | Plant response rating, Mustard, Wild [8, 14] | Plant response rating, Mustard, Wild [8, 15] | Plant response rating (scale of 0 to 100), Mustard, Wild ([8]; Preemergence, 31 g ai/ha) | Plant response rating (scale of 0 to 100), Mustard, Wild ([8]; Preemergence, 62 g ai/ha) | Plant response rating, Mustard, Wild [8, 16] | Plant response rating, Mustard, Wild [8, 17] | Plant response rating, Radish, Wild [9, 14] | Plant response rating, Radish, Wild [9, 15] | Plant response rating, Radish, Wild [9, 17] | Plant response rating, Buckwheat, Wild [10, 14] | Plant response rating, Buckwheat, Wild [10, 15] | Plant response rating (scale of 0 to 100), Pigweed ([11]; Preemergence, 31 g ai/ha) | Plant response rating (scale of 0 to 100), Pigweed ([11]; Preemergence, 62 g ai/ha) | Plant response rating, Pigweed [11, 16] | Plant response rating, Pigweed [11, 17]
95: Plant response rating, Windgrass [2, 17] | Plant response rating, Canarygrass [3, 16] | Plant response rating (scale of 0 to 100), Galium ([4]; Preemergence, 62 g ai/ha) | Plant response rating, Galium [4, 16] | Plant response rating, Field Violet [5, 14] | Buckwheat, Wild plant response rating [10, 13] | Plant response rating, Buckwheat, Wild [10, 18]
20: Kochia plant response rating (kochia (Kochia scoparia); [13]) | Plant response rating (scale of 0 to 100), Kochia (kochia (Kochia scoparia); Preemergence, 31 g ai/ha) | Plant response rating, Russian Thistle [6, 18]
70: Oilseed Rape plant response rating [1, 13] | Plant response rating, Kochia (kochia (Kochia scoparia); [17]) | Plant response rating (scale of 0 to 100), Bluegrass ([12]; Preemergence, 31 g ai/ha)
30: Plant response rating, Windgrass [2, 18] | Plant response rating, Kochia (kochia (Kochia scoparia); [14]) | Plant response rating, Bluegrass [12, 14]
75: Plant response rating (scale of 0 to 100), Oilseed Rape ([1]; Preemergence, 31 g ai/ha) | Plant response rating, Windgrass [2, 15] | Plant response rating (scale of 0 to 100), Windgrass ([2]; Preemergence, 31 g ai/ha) | Canarygrass plant response rating [3, 13] | Plant response rating, Canarygrass [3, 18] | Speedwell plant response rating [7, 13] | Plant response rating, Speedwell [7, 18] | Plant response rating, Pigweed [11, 18] | Plant response rating, Bluegrass [12, 19] | Plant response rating, Bluegrass [12, 16] | Plant response rating, Bluegrass [12, 17]
50: Plant response rating (scale of 0 to 100), Kochia (kochia (Kochia scoparia); Preemergence, 62 g ai/ha)
35: Plant response rating, Kochia (kochia (Kochia scoparia); [15])
60: Plant response rating, Russian Thistle [6, 16] | Plant response rating, Buckwheat, Wild [10, 19]
85: Plant response rating, Oilseed Rape [1, 14] | Plant response rating (scale of 0 to 100), Oilseed Rape ([1]; Preemergence, 62 g ai/ha) | Plant response rating, Oilseed Rape [1, 18] | Plant response rating, Canarygrass [3, 15] | Plant response rating (scale of 0 to 100), Canarygrass ([3]; Preemergence, 31 g ai/ha) | Plant response rating (scale of 0 to 100), Galium ([4]; Preemergence, 31 g ai/ha) | Field Violet plant response rating [5, 13] | Plant response rating, Radish, Wild [9, 18] | Plant response rating, Buckwheat, Wild [10, 16] | Plant response rating, Buckwheat, Wild [10, 17] | Plant response rating, Pigweed [11, 15]
40: Plant response rating (scale of 0 to 100), Buckwheat, Wild ([10]; Preemergence, 31 g ai/ha) | Plant response rating, Bluegrass [12, 15]
90: Plant response rating, Oilseed Rape [1, 16] | Plant response rating (scale of 0 to 100), Canarygrass ([3]; Preemergence, 62 g ai/ha) | Plant response rating, Field Violet [5, 18] | Plant response rating, Speedwell [7, 14]
0: Plant response rating (scale of 0 to 100), Russian Thistle ([6]; Preemergence, 31 g ai/ha)
45: Plant response rating, Russian Thistle [6, 14]
15: Plant response rating, Kochia (kochia (Kochia scoparia); [18]) | Plant response rating (scale of 0 to 100), Russian Thistle ([6]; Preemergence, 62 g ai/ha) | Bluegrass plant response rating [12, 13] | Plant response rating, Bluegrass [12, 18]
80: Plant response rating (scale of 0 to 100), Windgrass ([2]; Preemergence, 62 g ai/ha) | Plant response rating, Windgrass [2, 16] | Plant response rating, Canarygrass [3, 14] | Radish, Wild plant response rating [9, 13] | Plant response rating (scale of 0 to 100), Radish, Wild ([9]; Preemergence, 31 g ai/ha) | Pigweed plant response rating [11, 13] | Plant response rating, Pigweed [11, 14]
55: Plant response rating, Russian Thistle [6, 15]
65: Plant response rating, Windgrass [2, 14]
25: Windgrass plant response rating [2, 13] | Plant response rating, Kochia (kochia (Kochia scoparia); [16]) | Russian Thistle plant response rating [6, 13]
